Earlier results, collected in US20170273925A1 (Cumberland Pharmaceuticals Inc., priority 2014, published 2017).

Solubility in water: very poorly soluble in water
SMILES: CC(C)Cc1ccc(C(C)C(=O)O)cc1 (stereo not shown) [ibuprofen, 2-(4-isobutylphenyl) propionic acid]
